Data set [1] concerns MOLT-3 (acute lymphoblastic leukemia). Kind of data set: Cytotoxicity, XTT method, MOLT-3. It counts as cell-based. Conditions: Homo sapiens; MOLT-3 cell line; XTT; mean ± s.d. (n = 3); read-out: IC50, MOLT-3. On the procedure: (§1) The in vitro cytotoxicity assay toward a panel of human cancer cell lines of several clerodane diterpenoids has been well investigated. Thus, the isolates in adequate amounts were tested against MOLT-3 (acute lymphoblastic leukemia), HuCCA-1 (cholangiocarcinoma), HepG2 (hepatocellular carcinoma), A549 (lung adenocarcinoma), HeLa (cervical carcinoma), and MDA-MB-231 (triple negative breast cancer) cancer cell lines using the MTT and XTT methods. Doxorubicin and etoposide were used as positive controls.
(§2) The MTT (3-(4,5-dimethylthiazol-2-yl)-2,5-diphenyltetrazolium bromide) assay was employed for the cytotoxic evaluation against five human cancer cell lines, including HepG2, A549, MDA-MB-231, HeLa, and HuCCA-1, while the XTT (2,3-bis-(2-methoxy-4-nitro-5-sulphenyl)-(2H)-tetrazolium-5-carboxanilide) method was used for MOLT-3 cancer cell.

For data set [2], the system named is HuCCA-1 (cholangiocarcinoma). Kind of data set: Cytotoxicity, MTT assay, HuCCA-1. It counts as cell-based, human. Conditions: HuCCA-1 cell line; MTT; mean ± s.d. (n = 3). On the procedure:
as §1, §2

Data set [3] has as its system A549 (lung adenocarcinoma). Kind of data set: Cytotoxicity, MTT assay, A549. The class given is cell-based, human. The settings on record: A549 cell line, mean ± s.d. (n = 3). On the procedure:
as §1, §2

The subject of data set [4] is HeLa (cervical carcinoma). Kind of data set: Cytotoxicity, MTT assay, HeLa. The class given is cell-based, human. The settings on record: HeLa cell line; MTT; mean ± s.d. (n = 3). On the procedure:
as §1, §2

In data set [5] the test system is MDA-MB-231 (triple negative breast cancer). Kind of data set: Cytotoxicity, MTT assay, MDA-MB-231. The settings on record: MDA-MB-231 cell line; MTT; mean ± s.d. (n = 3). The class given is cell-based, human. The procedure: as §1, §2
The subject of data set [6] is HepG2 (hepatocellular carcinoma). Kind of data set: Cytotoxicity, MTT assay, HepG2. It counts as cell-based, human. The settings on record: HepG2 cell line; MTT; mean ± s.d. (n = 3). The procedure: as §1, §2
In data set [7] the test system is Staphylococcus aureus (ATCC 6538). Kind of data set: Antibacterial broth microdilution (MIC/MBC), S. aureus. It counts as cell-based. The settings on record: ATCC6538. On the procedure:
(§3) In addition, the isolates were also evaluated for their antibacterial activity towards three strains including Bacillus cereus (ATCC 11778), Staphylococcus aureus (ATCC 6538) and Staphylococcus epidermidis (ATCC 12228) using penicillin G and gentamicin as the antibiotic controls (Table 5). […] Finally, the inhibitory activity of aromatase by using a CYP19 screening kit was investigated. The aromatase (also called estrogen synthase) is responsible for converting the non-aromatic ring A of androgens to estrogens, which are related to the proliferation of breast cancer cells.
(§4) The tested strains, Staphylococcus aureus (S. aureus) ATCC6538, Staphylococcus epidermidis (S. epidermidis) ATCC12228, and Bacillus cereus (B. cereus) ATCC11778 were obtained from the American Type Culture Collection (ATCC).
(§5) All tested species were grown on Mueller Hinton Agar (MHA) and incubated at 37 °C for 18–24 h. The bacterial colonies suspension in sterile normal saline was diluted until they reached a 1 × 10^6 CFC/mL concentration, which was then compared to the McFarland scale. This step provided a standard bacterial suspension (1 × 10^6 CFU/mL), which was used for the following assays.
(§6) The broth microdilution technique was used for the MIC and MBC determination, which was expressed according to Clinical and Laboratory Standards Institute (CLSI) standard M07 guideline. The compounds were prepared as a stock solution by dissolving in dimethyl sulfoxide (DMSO) with the concentration ranging from 0.195 to 200 µg/mL. DMSO and penicillin G or gentamicin were used as normal and standard drug control. […] Three replicates were performed for each experiment.

The test system of data set [8] is Staphylococcus epidermidis (ATCC 12228). Kind of data set: Antibacterial broth microdilution (MIC/MBC), S. epidermidis. The class given is cell-based. The settings on record: ATCC12228. On the procedure: as §3, §4, §5, §6
Data set [9] has as its system Bacillus cereus (ATCC 11778). Kind of data set: Antibacterial broth microdilution (MIC/MBC), B. cereus. It counts as cell-based. The settings on record: Bacillus cereus, ATCC11778. The procedure: as §3, §4, §5, §6
The target in another data set is T1, aromatase (CYP19) (Homo sapiens, UniProt P11511).
T1 construct: purchased
T1 sequence (P11511 1-503): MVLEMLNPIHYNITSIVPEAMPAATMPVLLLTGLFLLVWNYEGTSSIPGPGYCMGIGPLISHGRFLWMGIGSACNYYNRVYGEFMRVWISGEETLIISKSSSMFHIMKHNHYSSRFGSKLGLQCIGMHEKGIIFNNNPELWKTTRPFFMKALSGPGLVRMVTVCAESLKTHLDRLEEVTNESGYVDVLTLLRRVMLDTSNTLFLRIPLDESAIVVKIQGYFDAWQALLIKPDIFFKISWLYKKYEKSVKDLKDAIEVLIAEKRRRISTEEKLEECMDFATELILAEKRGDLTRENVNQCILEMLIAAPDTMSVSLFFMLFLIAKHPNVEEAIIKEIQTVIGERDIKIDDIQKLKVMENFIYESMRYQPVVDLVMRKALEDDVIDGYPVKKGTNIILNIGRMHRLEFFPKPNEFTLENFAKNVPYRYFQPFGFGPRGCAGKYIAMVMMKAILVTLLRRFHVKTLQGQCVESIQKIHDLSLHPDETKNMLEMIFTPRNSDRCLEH
Kind of data set: Aromatase (CYP19) inhibition assay. The class given is biochemical. On the procedure:
as §3
The aromatase assay used a method previously designed by Stresser and co-workers.

Data set [10] relates to MOLT-3, HuCCA-1, HepG2, A549, HeLa, and MDA-MB-231 cancer cell lines. Kind of data set: Cytotoxicity toward panel of human cancer cell lines (MTT and XTT). It counts as cell-based. The settings on record: even at 50 µg/mL. The text has this:
The in vitro cytotoxicity assay toward a panel of human cancer cell lines of several clerodane diterpenoids has been well investigated. […] Doxorubicin and etoposide were used as positive controls.

Take `COc1cc([C@@H]2OC[C@@H]3[C@H]2CO[C@H]3c2cc(OC)c(O)c(OC)c2)cc(OC)c1O` [Compound 19, (−)-syringaresinol]: the IC50 in data set [1] was found to be 75.3 ± 4.9 µM. Moreover, the “IC50, HuCCA-1” value in data set [2] is reported as “I (Inactive for cytotoxicity with < 50% inhibition at a concentration of 50 µg/mL)”. Further, the “IC50, A549” value in data set [3] is reported as “I (Inactive for cytotoxicity with < 50% inhibition at a concentration of 50 µg/mL)”. Besides, the “IC50, HeLa” value in [4] is “I (Inactive for cytotoxicity with < 50% inhibition at a concentration of 50 µg/mL)”. Besides, the “IC50, MDA-MB-231” value in data set [5] is listed as “I (Inactive for cytotoxicity with < 50% inhibition at a concentration of 50 µg/mL)”. The “IC50, HepG2” value in data set [6] was “I (Inactive for cytotoxicity with < 50% inhibition at a concentration of 50 µg/mL)”. Besides, the MBC in data set [7], in [8] and in [9] was over 200 µg/mL each time. Moreover, the MIC in data set [7], in data set [8] and in data set [9] was over 200 µg/mL throughout. For the same compound, at aromatase (CYP19) (at a concentration of 12.5 µM), the inhibition at 12.5 µM is 17%. The “Aromatase inhibitory activity (in words)” value on aromatase (CYP19) (at the concentration up to 12.15 µM) is listed as “did not show activity”. For the same compound, the “Cytotoxicity against all cell lines (in words)” value in data set [10] is “inactive”.

The values above are taken from article PMC11401813, “Grewiifopenes A–K, bioactive clerodane diterpenoids from Casearia grewiifolia Vent” (Natural Products and Bioprospecting, 2024).
